According to US20260250290A1 (BRISTOL-MYERS SQUIBB COMPANY, priority 2023, published 2026):
Counter-ions that a name gives are not always drawn.

Target: T1, SGK1 (Homo sapiens, UniProt O00141)
T1 sequence (O00141 1-431): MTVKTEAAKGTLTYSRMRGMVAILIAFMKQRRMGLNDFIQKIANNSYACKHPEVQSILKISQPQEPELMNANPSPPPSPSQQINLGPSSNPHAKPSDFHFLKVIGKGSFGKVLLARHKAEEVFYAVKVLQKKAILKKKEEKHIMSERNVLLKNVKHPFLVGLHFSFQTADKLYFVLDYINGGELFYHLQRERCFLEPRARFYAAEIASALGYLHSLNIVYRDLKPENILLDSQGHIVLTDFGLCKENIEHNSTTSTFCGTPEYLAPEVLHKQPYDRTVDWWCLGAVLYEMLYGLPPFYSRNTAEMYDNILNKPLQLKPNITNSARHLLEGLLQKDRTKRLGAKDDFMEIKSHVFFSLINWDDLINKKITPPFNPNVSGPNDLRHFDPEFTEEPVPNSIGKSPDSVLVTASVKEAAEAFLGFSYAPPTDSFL
Experiment: SGK1 inhibition Assay B (Echo mass spectrometry of phosphorylated peptide product)
Format: biochemical
Conditions: 60 min at room temperature

Row | SMILES | IC50
1 | Cc1nc(OCCCN(C)C)c(C(=O)N[C@@H]2CCCN(c3cc(-c4cnc(-n5cnnn5)c(F)c4)n4ncnc(N)c34)C2)s1 [Example 919, N-[(3R)-1-{4-amino-7-[5-fluoro-6-(1H-1,2,3,4-tetrazol-1-yl)pyridin-3-yl]pyrrolo[2,1-f][1,2,4]triazin-5-yl}piperidin-3-yl]-4-[3-(dimethylamino)propoxy]-2-methyl-1,3-thiazole-5-carboxamide] | 5 nM
2 | CC(=O)N1CC=C(c2cc(N3CCC[C@@H](NC(=O)c4sc(C#N)cc4O[C@@H]4C[C@H]5CC[C@@H](C4)N5C)C3)c3c(N)ncnn23)C1 [Example 920, N—((R)-1-(7-(1-acetyl-2,5-dihydro-1H-pyrrol-3-yl)-4-aminopyrrolo[2,1-f][1,2,4]triazin-5-yl)piperidin-3-yl)-5-cyano-3-(((1R,3s,5S)-8-methyl-8-azabicyclo[3.2.1]octan-3-yl)oxy)thiophene-2-carboxamide] | 2 nM
3 | CC(=O)N1CC=C(c2cc(N3CCC[C@@H](NC(=O)c4sc(Cl)cc4OCC(C)(C)O)C3)c3c(N)ncnn23)C1 [Example 921, (R)—N-(1-(7-(1-acetyl-2,5-dihydro-1H-pyrrol-3-yl)-4-aminopyrrolo[2,1-f][1,2,4]triazin-5-yl)piperidin-3-yl)-5-chloro-3-(2-hydroxy-2-methylpropoxythiophene-2-carboxamide TFA salt] | 7 nM
4 | CC(=O)N1CC=C(c2cc(N3CCC[C@@H](NC(=O)c4cc5[nH]ccc5s4)C3)c3c(N)ncnn23)C1 [Example 923, (R)—N-(1-(7-(1-acetyl-2,5-dihydro-1H-pyrrol-3-yl)-4-aminopyrrolo[2,1-f][1,2,4]triazin-5-yl)piperidin-3-yl)-4H-thieno[3,2-b]pyrrole-2-carboxamide] | 1 nM
5 | CN1[C@@H]2CC[C@H]1C[C@H](Oc1cc(Cl)sc1C(=O)N[C@@H]1CCCN(c3cc(-c4ccc5c(c4)COC5=O)n4ncnc(N)c34)C1)C2 [Example 924, N—((R)-1-(4-amino-7-(1-oxo-1,3-dihydroisobenzofuran-5-yl)pyrrolo[2,1-f][1,2,4]triazin-5-yl)piperidin-3-yl)-5-chloro-3-(((1R,3s,5S)-8-methyl-8-azabicyclo[3.2.1]octan-3-yl)oxy)thiophene-2-carboxamide] | 0.9 nM
6 | CN1[C@@H]2CC[C@H]1C[C@H](Oc1cc(Cl)sc1C(=O)N[C@@H]1C[C@@H](F)CN(c3cc(-c4ccc(-n5cnnn5)c(F)c4)n4ncnc(N)c34)C1)C2 [Example 925, N-((3R,5R)-1-(4-amino-7-(3-fluoro-4-(1H-tetrazol-1-yl)phenyl)pyrrolo[2,1-f][1,2,4]triazin-5-yl)-5-fluoropiperidin-3-yl)-5-chloro-3-(((1R,3s,5S)-8-methyl-8-azabicyclo[3.2.1]octan-3-yl)oxy)thiophene-2-carboxamide, TFA salt] | 0.4 nM
7 | CN1[C@@H]2CC[C@H]1C[C@H](Oc1cc(Cl)sc1C(=O)N[C@@H]1CCCN(c3cc(C4=CCOC4)n4ncnc(N)c34)C1)C2 [Example 926, N—((R)-1-(4-amino-7-(2,5-dihydrofuran-3-yl)pyrrolo[2,1-f][1,2,4]triazin-5-yl)piperidin-3-yl)-5-chloro-3-(((1R,3s,5S)-8-methyl-8-azabicyclo[3.2.1]octan-3-yl)oxy)thiophene-2-carboxamide, TFA salt] | 0.8 nM
8 | CN1[C@@H]2CC[C@H]1C[C@H](Oc1cc(Cl)sc1C(=O)N[C@@H]1CCCN(c3cc(C4=CC(=O)OC4)n4ncnc(N)c34)C1)C2 [Example 927, N—((R)-1-(4-amino-7-(5-oxo-2,5-dihydrofuran-3-yl)pyrrolo[2,1-f][1,2,4]triazin-5-yl)piperidin-3-yl)-5-chloro-3-(((1R,3s,5S)-8-methyl-8-azabicyclo[3.2.1]octan-3-yl)oxy)thiophene-2-carboxamide, TFA salt] | 0.1 nM
9 | Cc1nc(O[C@@H]2C[C@H]3CC[C@@H](C2)N3C)c(C(=O)N[C@@H]2CCCN(c3cc(-c4csc(C(C)O)c4)n4ncnc(N)c34)C2)s1 (stereo partly drawn) [Example 928, N-((3R)-1-(4-amino-7-(5-(1-hydroxyethyl)thiophen-3-yl)pyrrolo[2,1-f][1,2,4]triazin-5-yl)piperidin-3-yl)-2-methyl-4-(((1R,3s,5S)-8-methyl-8-azabicyclo[3.2.1]octan-3-yl)oxy)thiazole-5-carboxamide, TFA salt] | 0.1 nM
10 | Cc1nc(O[C@@H]2C[C@H]3CC[C@@H](C2)N3C2CC(O)C2)c(C(=O)N[C@@H]2CCCN(c3cc(-c4ccc(-n5cnnn5)c(F)c4)n4ncnc(N)c34)C2)s1 (stereo partly drawn) [Example 929, N—((R)-1-(4-amino-7-(3-fluoro-4-(1H-tetrazol-1-yl)phenyl)pyrrolo[2,1-f][11,2,4]triazin-5-yl)piperidin-3-yl)-4-(((1R,3s,5S)-8-(3-hydroxycyclobutyl)-8-azabicyclo[3.2.1]octan-3-yl)oxy)-2-methylthiazole-5-carboxamide TFA salt] | 1 nM
11 | Cc1nc(O[C@H]2CC[C@]3(CCCN3)CC2)c(C(=O)N[C@@H]2CCCN(c3cc(-c4ccc(C(N)=O)c(F)c4)n4ncnc(N)c34)C2)s1 [Example 930, 4-(((5S,8r)-1-azaspiro[4.5]decan-8-yl)oxy)-N—((R)-1-(4-amino-7-(4-carbamoyl-3-fluorophenyl)pyrrolo[2,1-f][1,2,4]triazin-5-yl)piperidin-3-yl)-2-methylthiazole-5-carboxamide, TFA salt] | 1 nM
12 | Cc1nc(O[C@H]2CC[C@]3(CCCN3C)CC2)c(C(=O)N[C@@H]2CCCN(c3cc(-c4ccc(C(N)=O)c(F)c4)n4ncnc(N)c34)C2)s1 [Example 931, N—((R)-1-(4-amino-7-(4-carbamoyl-3-fluorophenyl)pyrrolo[2,1-f][1,2,4]triazin-5-yl)piperidin-3-yl)-2-methyl-4-(((5S,8r)-1-methyl-1-azaspiro[4.5]decan-8-yl)oxy)thiazole-5-carboxamide, TFA salt] | 0.5 nM
13 | CNC(=O)c1ccc(-c2cc(N3CCC[C@@H](NC(=O)c4sc(C)nc4O[C@H]4CC[C@@H](N(C)C)CC4)C3)c3c(N)ncnn23)cc1F [Example 932, N—((R)-1-(4-amino-7-(3-fluoro-4-(methylcarbamoyl)phenyl)pyrrolo[2,1-f][1,2,4]triazin-5-yl)piperidin-3-yl)-4-(((1s,4S)-4-(dimethylamino)cyclohexyl)oxy)-2-methylthiazole-5-carboxamide] | 3 nM
14 | Cc1cc(O[C@@H]2C[C@H]3CC[C@@H](C2)N3C)c(C(=O)N[C@@H]2CCCN(c3cc(-c4ccc(-n5cc(CCC#N)nn5)c(F)c4)n4ncnc(N)c34)C2)s1 [Example 933, N—((R)-1-(4-Amino-7-(4-(4-(2-cyanoethyl)-1H-1,2,3-triazol-1-yl)-3-fluorophenyl)pyrrolo[2,1-f][1,2,4]triazin-5-yl)piperidin-3-yl)-5-methyl-3-(((1R,3s,5S)-8-methyl-8-azabicyclo[3.2.1]octan-3-yl)oxy)thiophene-2-carboxamide] | 0.8 nM
15 | Cc1nc(O[C@H]2CC[C@@](C)(N)CC2)c(C(=O)N[C@@H]2CCCN(c3cc(-c4ccc(-n5cnnn5)c(F)c4)n4ncnc(N)c34)C2)s1 [Example 934, 4-(((1s,4S)-4-Amino-4-methylcyclohexyl)oxy)-N—((R)-1-(4-amino-7-(3-fluoro-4-(1H-tetrazol-1-yl)phenyl)pyrrolo[2,1-f][1,2,4]triazin-5-yl)piperidin-3-yl)-2-methylthiazole-5-carboxamide] | 0.5 nM
16 | Cc1nc(O[C@H]2CC[C@@H](N(C)C)CC2)c(C(=O)N[C@@H]2CCCN(c3cc(-c4ccc(C(N)=O)c(F)c4)n4ncnc(N)c34)C2)s1 [Example 937, N—((R)-1-(4-Amino-7-(4-carbamoyl-3-fluorophenyl)pyrrolo[2,1-f][1,2,4]triazin-5-yl)piperidin-3-yl)-4-(((1s,4S)-4-(dimethylamino)cyclohexyl)oxy)-2-methylthiazole-5-carboxamide] | 1 nM
17 | Cc1nc(O[C@H]2CC[C@@H](NC(C)C)C2)c(C(=O)N[C@@H]2CCCN(c3cc(-c4ccc(C(N)=O)c(F)c4)n4ncnc(N)c34)C2)s1 [Example 940, N—((R)-1-(4-Amino-7-(4-carbamoyl-3-fluorophenyl)pyrrolo[2,1-f][1,2,4]triazin-5-yl)piperidin-3-yl)-4-(((1S,3R)-3-(isopropylamino)cyclopentyl)oxy)-2-methylthiazole-5-carboxamide] | 3 nM
18 | Cc1nc(OC2CCCC(NC(C)C)CCC2)c(C(=O)N[C@@H]2CCCN(c3cc(-c4ccc(C(N)=O)c(F)c4)n4ncnc(N)c34)C2)s1 (stereo partly drawn) [Example 942, (R)—N-(1-(4-Amino-7-(4-carbamoyl-3-fluorophenyl)pyrrolo[2,1-f][1,2,4]triazin-5-yl)piperidin-3-yl)-4-((5-(isopropylamino)cyclooctyl)oxy)-2-methylthiazole-5-carboxamide] | 4 nM
19 | CN(C)C1CC2(CC(Oc3cc(Cl)sc3C(=O)N[C@@H]3CCCN(c4cc(-c5ccc(C(N)=O)c(F)c5)n5ncnc(N)c45)C3)C2)C1 (stereo partly drawn) [Example 944, (R)—N-(1-(4-Amino-7-(4-carbamoyl-3-fluorophenyl)pyrrolo[2,1-f][1,2,4]triazin-5-yl)piperidin-3-yl)-5-chloro-3-((6-(dimethylamino)spiro[3.3]heptan-2-yl)oxy)thiophene-2-carboxamide] | 1 nM
20 | Cc1nc(O[C@H]2CC[C@@H](CNCC(C)(C)C)CC2)c(C(=O)N[C@@H]2CCCN(c3cc(-c4ccc(C(N)=O)c(F)c4)n4ncnc(N)c34)C2)s1 [Example 945, N—((R)-1-(4-Amino-7-(4-carbamoyl-3-fluorophenyl)pyrrolo[2,1-f][1,2,4]triazin-5-yl)piperidin-3-yl)-2-methyl-4-(((cis)-4-((neopentylamino)methyl)cyclohexyl)oxy)thiazole-5-carboxamide] | 4 nM
